Entries after “also recorded” stand apart in the source; their conditions may differ.
What was measured:
physchem = type: physicochemical; conditions: buffer, pH 7.4
Protocol: The conjugation reaction of PMLA with PEG, TMZH, LLL and LOEt was followed by thin layer chromatography (TLC) on precoated silica gel 60 F254 aluminum sheets (Merck, Darmstadt, Germany) and visualization of spots by UV light and/or by ninhydrin staining. The concentration of free or conjugated TMZH was monitored by reading A328 and using known amounts of TMZ or TMZH standards. Size exclusion chromatography was performed on LACHROM ELITE, an analytical High Performance Liquid Chromatograph (HPLC) system with Diode Array Detector L 2455 (Hitachi, Pleasanton, Calif., USA), and Mw was measured using BioSep-SEC-S 3000 (300×7.80 mm) (Phenomenex, Torrance, Calif., USA) with 50 mM sodium phosphate buffer pH 6.8 and polystyrene sulfonates as molecular weight standards. Thiol residues attached to PMLA were assayed by the method of Ellman. Enzyme-linked immunosorbent assay (ELISA) was used to determine the functional activity of conjugated antibody using a Protein Detector ELISA Kit (KPL, Inc., Gaithersburg, Mass., USA). Human TfR ectodomain used as antigen was obtained from Protein Expression Center, California Institute of Technology, Pasadena, USA.
TMZ is a prodrug and undergoes spontaneous conversion to the active alkylating agent at neutral or alkaline pH. Half-lives were measured at physiological pH 7.4 in PBS and summarized in Table I. The decomposition of free and conjugated TMZH by hydrolytic ring opening (Chart 1) was a first order reaction for free TMZ or TMZH and conjugated TMZH (data not shown). […] Similar data have been reported for TMZ conjugated with small carbon chains (6). No detectable decomposition was observed during 24 h at pH 5.0 at RT.

MDA-MB-231 = assay: Cell viability (MTS); type: cell-based, human; conditions: MDA-MB-231, 24 h exposure, viability on day 7, untreated = 100%
Protocol: (§1) Primary glioma cell lines U87MG and T98G, and invasive breast carcinoma cell lines MDA-MB-231 and MDA-MB-468 were obtained from American Type Culture Collection (ATCC, Manassas, Va., USA) USA. U87MG and T98G cells were cultured in MEM supplemented with 10% fetal bovine serum, 1% MEM NEAA, 1 mM sodium pyruvate and 2 mM L-glutamine. For MDA-MB-231 and MDA-MB-468, Leibovitz's L-15 medium with 10% fetal bovine serum was used. Cells were seeded at 10^3 per well (0.1 ml) in 96-well flat-bottomed plates and incubated overnight at 37° C. in humid atmosphere with 5% CO2 (MDA-MB-231 and MDA-MB-468 were incubated without CO2). After exposure to synthesized conjugates for 24 h, medium was replaced every 48 h. Cell viability was measured on day 5 for T98G and day 7 for the rest of the cell lines using the CELLTITER 96 Aqueous One Solution Cell Proliferation Assay kit (Cat. No. PR-G3580; Promega, Madison, Wis., USA). Yellow [3-(4,5-dimethylthiazol-2-yl)-5-(3-carboxymethoxyphenyl)-2-(4-sulfophenyl-)-2H-tetrazolium, inner salt] (MTS) is bioreduced by cells into formazan that is soluble in the tissue culture medium. The absorbance reading at 490 nm from the 96-well plates is directly proportional to the number of living cells (32). The viability of the untreated cells was taken as 100%. The results shown are the means±standard deviation of three independent measurements. Data were analyzed by statistical software GRAPHPAD PRISM 3.0.

U87MG = assay: Cell viability (MTS); type: cell-based, human
Protocol: as §1

T98G = assay: Cell viability (MTS); type: cell-based, human; conditions: 24 h exposure, viability on day 5, untreated = 100%
Protocol: as §1

MDA-MB-468 = assay: Cell viability (MTS); type: cell-based, human; conditions: MDA-MB-468, 24 h exposure, viability on day 7, untreated = 100%
Protocol: as §1

SMILES | half-life (physchem) | Half-life of TMZ (physchem) | effect on cell viability (MDA-MB-231) | effect on cell viability (U87MG; 24 h exposure, viability on day 7, untreated = 100%) | order of increasing potency on cell viability (U87MG; FIG. 6a) | effect on cell viability (T98G) | effect on cell viability (MDA-MB-468)
Cn1nnc2c(C(=O)NN)ncn2c1=O [TMZH, temozolomide hydrazide] | 1.98 ± 0.1 h |  |  |  |  |  | 
Cn1nnc2c(C(N)=O)ncn2c1=O [TMZ, temozolomide] | 1.8 ± 0.1 h | 1.8 h | inactive; also recorded: did not change | stronger effect on U87MG cells than the nanoconjugates; also recorded: responded | P/PEG(2%)/LLL(40%)/TMZH(17%)/IgG(0.25%)<P/PEG(2%)/LLL(40%)/TMZH(17%)<P/PEG(2%)/LLL(40%)/TMZH(17%)/HuTfR mAb(0.25%)<TMZ | inactive; also recorded: did not change | inactive; also recorded: ineffective at all concentrations below 130 μM; also recorded: did not change

From patent US9629919B2, “Drug delivery of temozolomide for systemic based treatment of cancer” (CEDARS-SINAI MEDICAL CENTER, priority 2009, dated 2017)
